Test results from US20130005811A1, “ANTIMICROBIAL TREATMENT FOR SEEDS AND SPROUTS” (priority 2010, published 2013).
Where “and” joins values, the source holds several entries; their conditions need not be identical. Equal values may be shown once.

Tested on: alfalfa seeds
Assay: Determination of alfalfa seed germination percentage
Assay type: in vivo
Conditions: for Germination rate, average: average of 3 replicas
Experimental: Treated and non-treated seeds (5 g or number of seeds counted per replicate) were placed on the surface of a plastic tray. Three plastic trays were stacked vertically and top tray was filled with 100 ml of sterile deionized water or tap water which fed to the lower trays to maintain uniform moisture content for the seeds. The seeds were incubated at 22° C. for 72 hr. Each evaluation was based on three replicates of 200-400 seeds each. A seed was considered to have germinated if the seed coat was broken and a visible sprout was extending at least 8 mm from the original seed. Swollen seeds or ruptured seeds with sprout tissue still inside were not counted as germinated, because such seeds rarely sprouted completely after an additional 24 hr of incubation.

[1] = treatment for 1 h at 21° C., Ca(OCl)2 pH 11.4

Compound: [Ca+2].[O-]Cl.[O-]Cl [20,000 ppm, Ca(OCl)2, pH 11.4, Calcium hypochlorite]
- Effect on alfalfa seed germination (1 hr at 21° C., compared to tap water): substantially reduced germination percentage
- Germination rate, average [1]: 47%
- Germination rate, average (treatment for 1 h at 21° C., listed as 20,000 ppm calcium hypochlorite): 47.3%
- Germination rate, average (treatment for 1 h at 21° C., row): 47%
- Germination Ratio (Percentage), per replica [1]: 62% and 34% and 46%
- Germination Ratio (germinated/total seeds), per replica [1]: 124/200 and 68/200 and 92/200
